The values that follow come from ChEMBL document CHEMBL1142925, “Optimization and determination of the absolute configuration of a series of potent inhibitors of human papillomavirus type-11 E1-E2 protein-protein interaction: a combined medicinal chemistry, NMR and computational chemistry approach” (Bioorg Med Chem, 2007).

Active and inactive are the calls of the source. No cut-off for these calls is given here.

A word on the IC50: it is the concentration at which inhibition is half-maximal.

Experiment [1] has as its target Large T antigen (Simian virus 40) (UniProt P03070). The experiment can be described thus: Inhibition of binding of SV40 large T antigen to DNA by scintillation proximity assay. The settings on record: Betapolyomavirus macacae. In general terms: Scintillation proximity formats need no separation of bound from free tracer.
The nature of experiment [2]: Inhibition of HPV11 E1-E2 protein-protein interaction by E1-E2-ori-complex formation assay.

Sequence of Large T antigen (Simian virus 40) (P03070 whole entry): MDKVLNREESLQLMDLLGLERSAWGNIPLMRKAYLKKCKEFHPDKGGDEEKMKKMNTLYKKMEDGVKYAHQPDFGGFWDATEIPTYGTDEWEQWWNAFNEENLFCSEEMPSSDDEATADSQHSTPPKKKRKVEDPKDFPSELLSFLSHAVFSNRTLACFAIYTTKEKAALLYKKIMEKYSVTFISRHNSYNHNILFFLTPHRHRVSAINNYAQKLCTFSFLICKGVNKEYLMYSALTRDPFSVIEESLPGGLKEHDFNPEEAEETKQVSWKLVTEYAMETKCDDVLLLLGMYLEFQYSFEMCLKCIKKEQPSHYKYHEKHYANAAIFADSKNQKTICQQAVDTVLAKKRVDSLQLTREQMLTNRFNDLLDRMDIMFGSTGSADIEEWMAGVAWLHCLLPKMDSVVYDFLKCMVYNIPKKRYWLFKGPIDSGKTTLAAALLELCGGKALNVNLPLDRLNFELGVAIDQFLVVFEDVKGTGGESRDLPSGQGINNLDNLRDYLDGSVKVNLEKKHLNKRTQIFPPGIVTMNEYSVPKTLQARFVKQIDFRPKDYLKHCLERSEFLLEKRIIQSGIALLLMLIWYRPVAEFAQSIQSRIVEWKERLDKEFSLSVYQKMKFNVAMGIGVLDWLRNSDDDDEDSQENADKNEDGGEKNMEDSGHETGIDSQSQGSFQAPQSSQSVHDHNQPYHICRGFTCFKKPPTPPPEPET

Regarding `Cc1ccc2c(c1)C(=O)[C@@]1(O[C@@H](c3ccc(Cl)c(Cl)c3)[C@@H](C(=O)Nc3ccc(-c4csnn4)cc3)[C@H]1C(=O)O)C2=O`, the result in experiment [1] was inactive. In experiment [2], this compound came in with a concentration for half-maximal inhibition (IC50) of 0.18 µM. The like results for `CC(=O)c1ccc(NC(=O)[C@H]2[C@@H](C(=O)O)C3(O[C@H]2c2ccc(Cl)c(Cl)c2)C(=O)c2ccccc2C3=O)cc1` were, in that order, “inactive” and 0.38 µM. Regarding `O=C(NCc1ccccc1)[C@H]1[C@@H](C(=O)O)C2(O[C@H]1c1ccc(Cl)c(Cl)c1)C(=O)c1ccccc1C2=O`, the outcome in experiment [1] was inactive. Further, in experiment [2], inhibition was half-maximal at 3.5 µM (IC50).

As for `O=C(Nc1ccc(N2CCOCC2)cc1)[C@H]1[C@@H](C(=O)O)C2(O[C@H]1c1ccc(Br)c(Br)c1)C(=O)c1ccccc1C2=O` (stereo in doubt; 21) [listing 1 of 2 here], the outcome in experiment [1] was inactive. Take `O=C(Nc1ccc(N2CCOCC2)cc1)[C@H]1[C@@H](C(=O)O)C2(O[C@H]1c1ccc(Cl)c(Cl)c1)C(=O)c1ccccc1C2=O`: in experiment [1], the outcome was inactive. This compound yielded an IC50 in experiment [2] of 0.088 µM. Turning to `CC(=O)Nc1ccccc1NC(=O)[C@H]1[C@@H](C(=O)O)C2(O[C@H]1c1ccc(Cl)c(Cl)c1)C(=O)c1ccccc1C2=O`, the result in experiment [1] was inactive. Moreover, the 50% inhibitory concentration (IC50) in experiment [2] was 65 µM.

As for `O=C(Nc1ccc2c(c1)OCO2)[C@H]1[C@H]2C(=O)O[C@]3(O)c4ccccc4C(=O)[C@]23O[C@H]1c1ccc(Cl)cc1`, the result in experiment [1] was inactive. In experiment [2], this compound yielded an IC50 of 6.6 µM.

`C[C@@H](NC(=O)[C@H]1[C@H]2C(=O)O[C@]3(O)c4ccccc4C(=O)[C@]23O[C@H]1c1ccc(Cl)c(Cl)c1)c1ccccc1`: the outcome in experiment [1] was inactive. Further, half-maximal inhibition in experiment [2] (IC50) required 6.8 µM. In the case of `O=C(Nc1ccccc1)[C@H]1[C@@H](C(=O)O)C2(O[C@H]1c1ccc(Cl)c(Cl)c1)C(=O)c1ccccc1C2=O`, in experiment [1], the result was inactive. The compound further gave a 50% inhibitory concentration (IC50) in experiment [2] of 0.68 µM. Take `O=C(Nc1ccc(N2CCOCC2)cc1)[C@H]1[C@@H](C(=O)O)C2(O[C@H]1c1ccc(Br)c(Br)c1)C(=O)c1ccccc1C2=O` (stereo in doubt; 19) [listing 1 of 2 here]: in experiment [1], the outcome was inactive.

With `O=C(Nc1ccc(-c2csnn2)cc1)[C@H]1[C@@H](C(=O)O)C2(O[C@H]1c1ccc(Cl)c(Cl)c1)C(=O)c1ccccc1C2=O`, in experiment [1], the outcome was inactive. Besides, the half-maximal inhibitory concentration (IC50) in experiment [2] was found to be 0.15 µM.

In the case of `C[C@@H](NC(=O)[C@H]1[C@@H](c2ccc(Cl)c(Cl)c2)O[C@@]23C(=O)c4ccccc4[C@]2(O)OC(=O)[C@@H]13)c1ccccc1`, in experiment [1], the result was inactive. The IC50 in experiment [2] was greater than 75 µM. The matching figures for `O=C(Nc1ccc2c(c1)OCO2)[C@H]1[C@@H](C(=O)O)C2(O[C@H]1c1ccc(Cl)c(Cl)c1)C(=O)c1ccccc1C2=O`: “inactive” and 0.35 µM. The matching figures for `Cc1cc2c(s1)C(=O)[C@@]1(O[C@@H](c3ccc(Br)c(Br)c3)[C@@H](C(=O)Nc3ccc(N4CCOCC4)cc3)[C@H]1C(=O)O)C2=O`: “inactive” and 0.46 µM. For the compound `CC(C)(C)NC(=O)[C@H]1[C@@H](C(=O)O)C2(O[C@H]1c1ccc(Cl)c(Cl)c1)C(=O)c1ccccc1C2=O`, the outcome in experiment [1] was inactive. In addition, the 50% inhibitory concentration (IC50) in experiment [2] stood at 2.1 µM. The like results for `O=C(Nc1ccc2c(c1)OCO2)[C@H]1[C@@H](C(=O)O)C2(O[C@H]1c1ccc(Cl)cc1)C(=O)c1ccccc1C2=O` were, in that order, “inactive” and 7.8 µM.

`Cc1cc2c(s1)C(=O)[C@]1(O[C@@H](c3ccc(Br)c(Br)c3)[C@@H](C(=O)Nc3ccc(N4CCOCC4)cc3)[C@H]1C(=O)O)C2=O`: the result in experiment [1] was inactive. This compound also returned a concentration for half-maximal inhibition (IC50) in experiment [2] of 0.006 µM.

As for `CC(=O)Nc1ccc(NC(=O)[C@H]2[C@@H](C(=O)O)C3(O[C@H]2c2ccc(Cl)c(Cl)c2)C(=O)c2ccccc2C3=O)cc1`, the outcome in experiment [1] was inactive. In addition, the midpoint of inhibition in experiment [2], the IC50, lay at 0.44 µM.

`CC(=O)Nc1cccc(NC(=O)[C@H]2[C@@H](C(=O)O)C3(O[C@H]2c2ccc(Cl)c(Cl)c2)C(=O)c2ccccc2C3=O)c1`: the outcome in experiment [1] was inactive. The compound further returned an IC50 in experiment [2] of 0.74 µM. For `O=C(Nc1ccc(N2CCOCC2)cc1)[C@H]1[C@@H](c2ccc(Br)c(Br)c2)OC2(C(=O)c3ccccc3C2=O)[C@H]1C(=O)O`, in experiment [1], the outcome was inactive. This compound registered a half-inhibitory concentration (IC50) in experiment [2] of 15 µM. Regarding `O=C(Nc1ccc(N2CCOCC2)cc1)[C@H]1[C@@H](C(=O)O)C2(O[C@H]1c1ccc(Br)c(Br)c1)C(=O)c1ccccc1C2=O` (stereo in doubt; 21) [listing 2 of 2 here], the IC50 in experiment [2] turned out to be 0.028 µM. That is a double-digit nanomolar value.

On to `O=C(Nc1ccc(N2CCOCC2)cc1)[C@H]1[C@@H](C(=O)O)C2(O[C@H]1c1ccc(Br)c(Br)c1)C(=O)c1ccccc1C2=O` (stereo in doubt; 19) [listing 2 of 2 here], for which the IC50 in experiment [2] worked out at 0.051 µM.
